# Data as given in PubChem BioAssay AID1963872 (Molecular Pharmacology Branch, DTP, NCI, 2024).
# System: KRAS patient-derived spheroids with HUVEC/MSC, viability
# Assay: Anticancer human tumor 519858-162-T-J1-PDC patient-derived colon adenocarcinoma cell line growth inhibition [KRAS2]
# Settings: for IC50: curve of first compound; for viability, T/C: stronger effect = lower value
# From the text: Multicellular complex tumor spheroid response to RAS pathway inhibitors in combination with a targeted agents in patient-derived cell lines with oncogenic KRAS variants from multiple cancer types
# A high-throughput screen of multi-cell type tumor spheroids was designed to identify active combinations of targeted small molecules and KRAS pathway inhibitors. Complex spheroids include a stromal component modeled by human endothelial cells (HUVEC) and fibroblasts modeled by human mesenchymal stem cells (MSCs). The concentration ranges selected for each drug and investigational agent were based upon clinically achievable concentrations if the clinical Cmax of the agent was known.
# Compounds. The drugs and investigational agents: BI-3406 (NSC825286), BAY-293 (NSC824723), batoprotafib (TNO155; NSC825523), sotorasib (AMG 510; NSC818433), MRTX1257 (NSC819558), elimusertib (BAY 1895344; NSC800525), molibresib (GSK525762; NSC774829), temuterkib (LY3214996; NSC803410), venetoclax (NSC766270), alisertib (NSC759677), olaparib (NSC753686), talazoparib (NSC767125), erdafitinib (NSC781556), ipatasertib (NSC767898), cabozantinib (NSC761068), nintedanib (NSC756659), abemaciclib (NSC768073), docetaxel (NSC628503), trametinib (NSC758246), and sapanisertib (NSC764658) were obtained from the National Cancer Institute (NCI) Developmental Therapeutics Program Chemical Repository. The FDA-approved anticancer drug set is available from the Developmental Therapeutics Program. […] The stock solutions were prepared in dimethyl sulfoxide (DMSO, Sigma-Aldrich, St. Louis, MO, cat. D2650) at 800-fold the tested concentration and stored at -70 degrees C prior to their use. All drugs and investigational agents were tested over a range starting from a high concentration at or near the clinical Cmax and decreasing in half-log increments. If the clinical Cmax for an agent had not been determined, the highest concentration tested was 10 microM.
# Cell Culture. All cells were maintained in an incubator at 37 degrees C and 5% CO2 with 95% humidity. The PDC lines were cultured according to standard operating procedures established by the NCI PDMR (https://pdmr.cancer.gov/sops/default.htm). Briefly, all PDCs were thawed and cultured in Matrigel-coated flasks prepared with a working solution of 1X Ham's F-12 nutrient mix, without supplementation (Invitrogen, Waltham, MA, cat. 11765054), 100 U/mL penicillin-streptomycin (Invitrogen, cat. 15140122), and 2.5% Matrigel (Corning Inc., Corning, NY, cat. 354248) for the first three passages. All PDCs were cultured in complete DMEM/F-12 media containing advanced DMEM/F-12 (Invitrogen, cat. 12634028), 4.9% defined fetal bovine serum, heat inactivated (HyClone Laboratories Inc., Logan, UT, cat. SH30070.03HI), 389 ng/mL hydrocortisone (Sigma-Aldrich, cat. H4001), 9.7 ng/mL human EGF recombinant protein (Invitrogen, cat. PHG0313), 23.4 microg/mL adenine (Sigma-Aldrich, cat. A2786), 97.3 U/mL penicillin-streptomycin (Invitrogen, cat. 15140122), 1.9 mM L-glutamine (Invitrogen, cat. 25030081), and 9.7 microM Y-27632 dihydrochloride (Tocris Bioscience, Bristol, United Kingdom, cat. 1254). The PDCs were cultured in complete DMEM/F12 media without 9.7 microM Y-27632 dihydrochloride for at least two passages prior to the screen. The established cell line HOP-62 was cultured in RPMI 1640 medium, HEPES (Invitrogen, cat. 22400105) with 10% defined fetal bovine serum (HyClone Laboratories Inc., cat. SH30070.03) and 2 mM L-glutamine (Invitrogen, cat. 25030081). The pooled donor HUVEC were cultured in endothelial cell growth medium 2 (PromoCell, Heidelberg, Germany, cat. C-22011) and the hMSC were cultured in mesenchymal stem cell growth medium 2 (PromoCell, cat. C-28009). For all experiments, HUVEC and hMSC were used at passages </=5, while the malignant cell lines were used at passages </=15. […]
# [1] = second compound 0.1 µM, first compound 0.0316 µM
# [2] = second compound 0.1 µM, first compound 0.1 µM
# [3] = second compound 0.1 µM, first compound 0.316 µM
# [4] = second compound 0.1 µM, first compound 1 µM
# [5] = second compound 0.1 µM, first compound 3.16 µM
# [6] = second compound 0.1 µM, first compound 10 µM
# [7] = second compound 0.316 µM, first compound 0.0316 µM
# [8] = second compound 0.316 µM, first compound 0.1 µM
# [9] = second compound 0.316 µM, first compound 0.316 µM
# [10] = second compound 0.316 µM, first compound 1 µM
# [11] = second compound 0.316 µM, first compound 3.16 µM
# [12] = second compound 0.316 µM, first compound 10 µM
# [13] = second compound 1 µM, first compound 0.0316 µM
# [14] = second compound 1 µM, first compound 0.1 µM
# [15] = second compound 1 µM, first compound 0.316 µM
# [16] = second compound 1 µM, first compound 1 µM
# [17] = second compound 1 µM, first compound 3.16 µM
# [18] = second compound 1 µM, first compound 10 µM
# [19] = second compound 3.16 µM, first compound 0.0316 µM
# [20] = second compound 3.16 µM, first compound 0.1 µM
# [21] = second compound 3.16 µM, first compound 0.316 µM
# [22] = second compound 3.16 µM, first compound 1 µM
# [23] = second compound 3.16 µM, first compound 3.16 µM
# [24] = second compound 3.16 µM, first compound 10 µM
# [25] = second compound 10 µM, first compound 0.0316 µM
# [26] = second compound 10 µM, first compound 0.1 µM
# [27] = second compound 10 µM, first compound 0.316 µM
# [28] = second compound 10 µM, first compound 1 µM
# [29] = second compound 10 µM, first compound 3.16 µM
# [30] = second compound 10 µM, first compound 10 µM
# 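Further: compound exposure lasted seven days before readout.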
# 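Wherever viability, T/C is given: 100% = DMSO vehicle control viability.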
SMILES,IC50 (second compound 0.1 µM),IC50 (second compound 0.316 µM),IC50 (second compound 1 µM),IC50 (second compound 3.16 µM),IC50 (second compound 10 µM),"viability, T/C [1]","viability, T/C [2]","viability, T/C [3]","viability, T/C [4]","viability, T/C [5]","viability, T/C [6]","viability, T/C [7]","viability, T/C [8]","viability, T/C [9]","viability, T/C [10]","viability, T/C [11]","viability, T/C [12]","viability, T/C [13]","viability, T/C [14]","viability, T/C [15]",other results
COc1cc(Nc2ncc3c(n2)-c2ccc(Cl)cc2C(c2c(F)cccc2OC)=NC3)ccc1C(=O)O + C=CC(=O)N1CCN(c2nc(=O)n(-c3c(C)ccnc3C(C)C)c3nc(-c4c(O)cccc4F)c(F)cc23)C(C)C1,> 10 µM,> 10 µM,> 10 µM,> 10 µM,> 10 µM,104%,62.4%,89.9%,102%,104%,120%,80%,91.2%,74.1%,53.3%,89.9%,125%,97.2%,94.4%,91.5%,"viability, T/C [16]: 85.5%; viability, T/C [17]: 83%; viability, T/C [18]: 125%; viability, T/C [19]: 134%; viability, T/C [20]: 74.8%; viability, T/C [21]: 57.1%; viability, T/C [22]: 90.1%; viability, T/C [23]: 71.3%; viability, T/C [24]: 91.1%; viability, T/C [25]: 95.1%; viability, T/C [26]: 74.1%; viability, T/C [27]: 83%; viability, T/C [28]: 71%; viability, T/C [29]: 73%; viability, T/C [30]: 103%"
COc1cc2nccc(Oc3ccc(NC(=O)C4(C(=O)Nc5ccc(F)cc5)CC4)cc3)c2cc1OC + C=CC(=O)N1CCN(c2nc(=O)n(-c3c(C)ccnc3C(C)C)c3nc(-c4c(O)cccc4F)c(F)cc23)C(C)C1,> 10 µM,> 10 µM,> 10 µM,> 10 µM,> 10 µM,77.8%,91.2%,93.5%,93.6%,71.8%,185%,97.1%,99%,92.3%,86.6%,84.8%,135%,91.5%,87.7%,91.7%,"viability, T/C [16]: 98.7%; viability, T/C [17]: 105%; viability, T/C [18]: 134%; viability, T/C [19]: 88.2%; viability, T/C [20]: 73.3%; viability, T/C [21]: 69.8%; viability, T/C [22]: 81%; viability, T/C [23]: 74.2%; viability, T/C [24]: 109%; viability, T/C [25]: 94.7%; viability, T/C [26]: 89.5%; viability, T/C [27]: 75.6%; viability, T/C [28]: 68.2%; viability, T/C [29]: 61.9%; viability, T/C [30]: 131%"
